The values that follow come from patent publication US6737425B1, “N,N-substituted cyclic amine derivatives” (Eisai Co., Ltd., priority 1998, dated 2004).

Where a name gives a salt, the structure may show the parent alone.

One assay relates to voltage-dependent calcium channels (cerebral cortex synaptosome). The assay can be described thus: Measurement of voltage-dependent calcium channel activity by the use of a fluorescent pigment (fura 2). The note with it: rat cerebral cortex synaptosome, fura 2, KCl stimulation, compound incubated 10 minutes. It counts as cell-based. The procedure: Measurement of Voltage-dependent Calcium Channel Activity by the use of a Fluorescent Pigment (fura 2)
Cerebral cortexes were removed from cut rat brains and disrupted roughly with scissors. These were introduced into a homogenizer, homogenized in 0.3 M saccharose and centrifuged at 4° C. (1,500 g×10 min). The resulting supernatant was further centrifuged at 4° C. (10,000 g×20 min). The resulting precipitates were suspended in 0.3 M saccharose. The suspension was layered on 0.8 M saccharose and centrifuged (10,000 g×30 min.).
4 μM fura 2/AM (Dojin Ltd.) was suspended in solution A to prepare a loading solution. To the synaptosome solution prepared in the method described above was added an equal volume of the loading solution, and the mixture was incubated for 40 minutes at room temperature.
As comparative and control compound, verapamil hydrochloride was used.
As to `COc1ccc(CCN(C)CCCC(C#N)(c2ccc(OC)c(OC)c2)C(C)C)cc1OC` (stereo not drawn) [Control, verapamil hydrochloride, reference compound], the IC50 was greater than 16 µM.

As for `CC(C)C(C#N)(CCCN1CCN(CCCOc2ccc(F)cc2)CC1)c1ccccc1` (stereo not drawn) [Example 2, 1-[(4-Cyano-5-methyl-4-phenyl)hexyl]-4-[3-(4-fluorophenoxy)propyl]piperazine], the concentration for half-maximal inhibition (IC50) was found to be 4 µM.

Consider `CC(C)C(C#N)(CCCN1CCCN(CCOc2ccc(F)cc2)CC1)c1ccccc1` (stereo not drawn) [Example 3], for which the IC50 came to 4.8 µM.

Regarding `CC(C)C(C#N)(CCN1CCCN(CCOc2ccc(F)cc2)CC1)c1ccccc1` (stereo not drawn) [Example 4, 1-[(3-Cyano-4-methyl-3-phenyl)pentyl]-4-[2-(4-fluorophenoxy)ethyl]homopiperazine], the IC50 was 5.7 µM.

For the compound `CC(C)C(C#N)(CCN1CCN(CCCOc2ccc(F)cc2)CC1)c1ccccc1` (stereo not drawn) [Example 5, 1-[(3-Cyano-4-methyl-3-phenyl)pentyl]-4-[3-(4-fluorophenoxy)propyl]piperazine], the half-maximal inhibitory concentration (IC50) amounted to 7.7 µM.

For the compound `CC(C)C(C#N)(CCCN1CCN(CCCCOc2ccccc2)CC1)c1ccccc1` (stereo not drawn) [Example 6, 1-[(4-Cyano-5-methyl-4-phenyl)hexyl]-4-(4-phenoxybutyl)piperazine], the concentration for half-maximal inhibition (IC50) turned out to be 2.7 µM.

For the compound `CC(C)C(C#N)(CCCN1CCN(CCOc2ccc([N+](=O)[O-])cc2)CC1)c1ccccc1` (stereo not drawn) [Example 8, 1-[(4-Cyano-5-methyl-4-phenyl)hexyl]-4-[2-(4-nitrophenoxy)ethyl]piperazine], the IC50 turned out to be 4.2 µM.

For the compound `COC(=O)c1ccc(C(C#N)(CCCN2CCN(CCOc3ccc(F)cc3)CC2)C(C)C)cc1` (stereo not drawn) [Example 12, 1-[4-Cyano-5-methyl-4-(4-carbomethoxyphenyl)hexyl]-4-[2-(4-fluorophenoxy)ethyl]piperazine], the IC50 turned out to be 8.1 µM.

`CC(C)C(C#N)(CCCN1CCN(CCOc2ccc(F)cc2)CC1)c1ccc(C=NO)cc1` (stereo not drawn) [Example 14, 1-[4-Cyano-5-methyl-4-(4-hydroxyiminomethylphenyl)hexyl]-4-[2-(4-fluorophenoxy)ethyl]piperazine]: the half-inhibitory concentration (IC50) came out at 8.7 µM.

`CC(C)C(C#N)(CCCN1CCN(CCOc2ccc(F)cc2)CC1)c1ccc(C#N)cc1` (stereo not drawn) [Example 15, 1-[4-Cyano-5-methyl-4-(4-cyanonphenyl)hexyl]-4-[2-(4-fluorophenoxy)ethyl]piperazine]: the concentration for half-maximal inhibition (IC50) was determined as 9.8 µM.

As to `CC(C)C(C#N)(CCCN1CCN(CCOc2ccc(F)cc2)CC1)c1ccc([N+](=O)[O-])cc1` (stereo not drawn) [Example 16, 1-[4-Cyano-5-methyl-4-(4-nitrophenyl)hexyl]-4-[2-(4-fluorophenoxy)ethyl]piperazine], the IC50 came to 4.8 µM.

For `CC(C)C(C#N)(CCCN1CCN(CCOc2ccc(F)cc2)CC1)c1ccc(N)cc1` (stereo not drawn) [Example 17, 1-[4-Cyano-5-methyl-4-(4-aminophenyl)hexyl]-4-[2-(4-fluorophenoxy)ethyl]piperazine], the IC50 is greater than 16 µM.

For `CC(C)C(C#N)(CCCN1CCN(CCOc2ccc(F)cc2)CC1)c1ccc(N(C)C)cc1` (stereo not drawn) [Example 19, 1-[4-Cyano-5-methyl-4-(4-dimethylaminophenyl)hexyl]-4-[2-(4-fluorophenoxy)ethyl]piperazine], the concentration for half-maximal inhibition (IC50) was found to be 6 µM.

`CC(C)C(C#N)(CCN1CCN(CCOc2ccc(F)cc2)CC1)c1ccccc1` (stereo not drawn) [Example 25, 1-[(3-Cyano-4-methyl-3-phenyl)pentyl]-4-[2-(4-fluourophenoxy)ethyl]piperazine]: the IC50 was determined as 9.7 µM.

On to `CCCC(C#N)(CCCN1CCN(CCOc2ccc(F)cc2)CC1)c1ccccc1` (stereo not drawn) [Example 27, 1-[(4-Cyano-4-phenyl)heptyl]-4-[2-(4-fluorophenoxy)ethyl]piperazine], for which the IC50 came to 4.6 µM.

As to `CCC(C#N)(CCCN1CCN(CCOc2ccc(F)cc2)CC1)c1ccccc1` (stereo not drawn) [Example 28, 1-[(4-Cyano-4-phenyl)hexyl]-4-[2-(4-fluorophenoxy)ethyl]piperazine], the 50% inhibitory concentration (IC50) came to 7.2 µM.

`CCCCC(C#N)(CCCN1CCN(CCOc2ccc(F)cc2)CC1)c1ccccc1` (stereo not drawn) [Example 29, 1-[(4-Cyano-4-phenyl)octyl]-4-[2-(4-fluorophenoxy)ethyl]piperazine]: the IC50 was 4 µM.

Regarding `CC(C)CC(C#N)(CCCN1CCN(CCOc2ccc(F)cc2)CC1)c1ccccc1` (stereo not drawn) [Example 30, 1-[(4-Cyano-6-methyl-4-phenyl)hepthyl]-4-[2-(4-fluorophenoxy)ethyl]piperazine], the IC50 amounted to 2.9 µM.

As for `CC(C)C(C#N)(CCCN1CCN(CCOc2ccccc2F)CC1)c1ccccc1` (stereo not drawn) [Example 31], the IC50 was determined as 9.3 µM.

On to `CC(C)C(C#N)(CCCN1CCN(CCOc2cccc(F)c2)CC1)c1ccccc1` (stereo not drawn) [Example 32, 1-[(4-Cyano-5-methyl-4-phenyl)hexyl]-4-[2-(3-fluorophenoxy)ethyl]piperazine], for which the concentration for half-maximal inhibition (IC50) was 6.2 µM.

Take `CC(C)C(C#N)(CCCN1CCN(CCCCCOc2ccc(F)cc2)CC1)c1ccccc1` (stereo not drawn) [Example 33]: the 50% inhibitory concentration (IC50) turned out to be 3.4 µM.

Regarding `CC(C)C(C#N)(CCCCN1CCN(CCOc2ccc(F)cc2)CC1)c1ccccc1` (stereo not drawn) [Example 34], the IC50 is 3.8 µM.

On to `CC(C)C(C#N)(CCCN1CCN(CCOc2ccc(F)c(F)c2)CC1)c1ccccc1` (stereo not drawn) [Example 35, 1-[(4-Cyano-5-methyl-4-phenyl)hexyl]-4-[2-(3,4-difluorophenoxy)ethyl]piperazine], for which the IC50 was 5.2 µM.

Take `CC(C)C(C#N)(CCCN1CCN(CCOc2ccc(F)cc2)CC1)c1ccc(Cl)c(Cl)c1` (stereo not drawn) [Example 37, 1-{[4-Cyano-5-methyl-4-(3,4-dichlorophenyl)hexyl]}-4-[2-(4-fluorophenoxy)ethyl]piperazine]: the half-maximal inhibitory concentration (IC50) came to 2.7 µM.

`N#CC(CCCN1CCN(CCOc2ccc(F)cc2)CC1)(c1ccccc1)C1CCCCC1` (stereo not drawn) [Example 38]: the half-inhibitory concentration (IC50) came to 4 µM.

On to `COc1ccc(OCCN2CCN(CCCC(C#N)(c3ccccc3)C(C)C)CC2)cc1` (stereo not drawn) [Example 39, 1-[(4-Cyano-5-methyl-4-phenyl)hexyl]-4-[2-(4-methoxyphenoxy)ethyl]piperazine], for which the IC50 came out at 9.6 µM.

As to `COc1cccc(OCCN2CCN(CCCC(C#N)(c3ccccc3)C(C)C)CC2)c1OC` (stereo not drawn) [Example 40, 1-[(4-Cyano-5-methyl-4-phenyl)hexyl]-4-[2-(2,3-dimethoxyphenoxy)ethyl]piperazine], the IC50 was 10 µM.

Consider `CC(C)C(C#N)(CCCN1CCN(CCOc2ccc(N(C)C)cc2)CC1)c1ccccc1` (stereo not drawn) [Example 43, 1-[(4-Cyano-5-methyl-4-phenyl)hexyl]-4-[2-(4-dimethylaminophenoxy)ethyl]piperazine], for which the IC50 was 13 µM.

Turning to `CSc1ccc(OCCN2CCN(CCCC(C#N)(c3ccccc3)C(C)C)CC2)cc1` (stereo not drawn) [Example 45, 1-[(4-Cyano-5-methyl-4-phenyl)hexyl]-4-[2-(4-methylthiophenoxy)ethyl]piperazine], the IC50 came to 4.6 µM.

As to `CC(C)C(C#N)(CCCN1CCN(CCOc2ccccc2C#N)CC1)c1ccccc1` (stereo not drawn) [Example 46, 1-[(4-Cyano-5-methyl-4-phenyl)hexyl]-4-[2-(2-cyanophenoxy)ethyl]piperazine], the IC50 came to 16 µM.

Regarding `CC(C)C(C#N)(CCCN1CCN(CCOc2ccc(C#N)cc2)CC1)c1ccccc1` (stereo not drawn) [Example 47, 1-[(4-Cyano-5-methyl-4-phenyl)hexyl]-4-[2-(4-cyanophenoxy)ethyl]piperazine], the half-maximal inhibitory concentration (IC50) stood at 13 µM.

In the case of `CC(C)C(C#N)(CCCN1CCN(CCOCc2ccccc2)CC1)c1ccccc1` (stereo not drawn) [Example 48, 1-[(4-Cyano-5-methyl-4-phenyl)hexyl]-4-[2-(benzyloxy)ethyl]piperazine], the IC50 amounted to 8.4 µM.

As to `CC(C)C(C#N)(CCCN1CCN(CCSc2ccc(F)cc2)CC1)c1ccccc1` (stereo not drawn) [Example 49, 1-[(4-Cyano-5-methyl-4-phenyl)hexyl]-4-[2-(4-fluorophenylthio)ethyl]piperazine], the IC50 turned out to be 4.8 µM.

Turning to `CC(C)C(C#N)(CCCN1CCN(CCNc2ccc(F)cc2)CC1)c1ccccc1` (stereo not drawn) [Example 51, 1-[(4-Cyano-5-methyl-4-phenyl)hexyl]-4-[2-(4-fluorophenylamino)ethyl]piperazine], the half-inhibitory concentration (IC50) worked out at 7.5 µM.

`CC(=O)N(CCN1CCN(CCCC(C#N)(c2ccccc2)C(C)C)CC1)Cc1ccccc1` (stereo not drawn) [Example 56, 1-[(4-Cyano-5-methyl-4-phenyl)hexyl]-4-[2-(N-acetyl-N-benzylamino)ethyl]piperazine]: the IC50 is 16 µM.

With `CC(C)C(C#N)(CCCN1CCN(CCC(=O)c2ccc(F)cc2)CC1)c1ccccc1` (stereo not drawn) [Example 59, 1-[(4-Cyano-5-methyl-4-phenyl)hexyl]-4-[2-(4-fluorobenzoyl)ethyl]piperazine], the 50% inhibitory concentration (IC50) stood at 12 µM.

The same assay, now with this note: rat cerebral cortex synaptosome, fura 2, KCl stimulation, compound incubated 10 minutes; Hydrochloride.
For `CC(C)C(C#N)(CCN1CCN(CCOc2ccc(F)cc2)CC1)c1ccccc1` (single isomer, unassigned; (+)) [Example 78, (+)-1-[(3-Cyano-4-methyl-3-phenyl)pentyl]-4-[2-(4-fluorophenoxyl)ethyl]piperazine Hydrochloride], the IC50 turned out to be 15 µM.

Turning to `N#CC(CCCN1CCN(CCOc2ccc(F)cc2)CC1)(c1ccccc1)C1CCCCC1` (single isomer, unassigned; (+)) [Example 80, (+)-1-[(4-Cyano-4-cyclohexyl-4-phenyl)butyl]-4-[2-(4-fluorophenoxyl)ethyl]piperazine Hydrochloride], the concentration for half-maximal inhibition (IC50) stood at 3.8 µM.

Turning to `CC(C)C(C#N)(CCN1CCN(CCOc2ccc(F)cc2)CC1)c1ccccc1` (single isomer, unassigned; (-)) [Example 77, (−)-1-[(3-Cyano-4-methyl-3-phenyl)pentyl]-4-[2-(4-fluorophenoxyl)ethyl]piperazine Hydrochloride], the IC50 was 7.5 µM.

As usually defined, the IC50 is the concentration at which inhibition is half-maximal.
